Consider one compound from patent US7109351B1, “Fused pyrrolecarboxamides; GABA brain receptor ligands” (Neurogen Corporation, priority 1999, dated 2006).

A word on the Ki: it is a measure of affinity in units of concentration, obtained from inhibition or displacement. A higher Ki goes with a looser hold on the target.

This experiment concerns the target benzodiazepine site of the GABAA receptor. Description: GABAA receptor binding assay (displacement of 3H-Ro15-1788). As to conditions: rat cortical tissue homogenate, 0.5 nM 3H-Ro15-1788 [3H-Flumazenil], 30 min at 4° C. A general note: Displacement assays read how much labelled ligand stays bound in the presence of the test substance.

In turn, `CC1CC(=O)c2c(C(=O)Nc3ccc(OCCO)nc3)c[nH]c2C1` (stereo not shown) [Compound 15, N-[(2-Hydroxyethoxy)pyrid-5-yl]-4-oxo-6-methyl-4,5,6,7-tetrahydro-1H-indole-3-carboxamide] gave a Ki of 12 nM.
